In patent US20010046704A1, “Methods and compositions to activate genes in cells” (priority 2000, published 2001):

Legend:
mouse ES stem cells = experiment: Chemical mutagenesis of cell suspensions, cytotoxicity of the mutagen; format: cell-based; settings: cell suspensions (eg, mouse ES stem cells) exposed to doses as high as 0.4 mg/mL for 2 to 3 hours
From the text: In this regard, numerous chemical mutagens have been described and used in the past, as described for instance by Russell et al., Biology of Mammalian Germ Cell Mutagenesis, Cold Spring Harbor Laboratory Press, 1990:271-285; Rinchik E. M., Trends in Genetics, 1991;7(1):15-21; or Marker et al., Genetics, 1997;145(2):435-443. For mutagenesis, cells are preferably treated with increasing amounts of the chemical mutagen(s) either in whole animals or in cell suspensions, to assess the cytotoxicity of the chemical mutagen(s). Typical doses have been described in the literature as cited above. For example, cell suspensions (eg, mouse ES stem cells) are exposed to doses of N-ethyl-N-nitrosourea (ENU) as high as 0.4 mg/mL for 2 to 3 hours, which results in more than 98% of the cells dying. […] Other mutagens include for instance intercalating agents, alkylating agents, strand breaking agents, mismatch-inducing agents, etc.

DNA = settings: compared with other mutagenic agents; cited from earlier work

CCN(N=O)C(N)=O [ENU, N-ethyl-N-nitrosourea]
cells dying (mouse ES stem cells): more than 98%
efficiency in generating mutations relative to other agents (DNA): at least 10 times
